Measured values published in patent publication US20250108036A1, “COMPOSITIONS FOR REMOVING SENESCENT CELLS AND USES THEREOF” (LIFECEUTIX CO., LTD., priority 2021, published 2025).

Tests used:
Format in all cases: cell-based, human
[1] = tested on: foreskin cells in which senescence was induced by doxorubicin; test: CellTiter-Glo cell viability of doxorubicin-induced senescent foreskin cells (Examples 1-2, 10, 11, 13; Tables 4, 63, 65); conditions: Homo sapiens, 72 h, doxorubicin-induced senescent foreskin cells, CellTiter-Glo, 0 μM = 100, read-out: Survival (%); for viability at 1.1 µM: 1.1 μM test compound; for viability at 10 µM: 10 μM test compound; for viability at 30 µM: 30 μM test compound; for viability at […]: […] test compound
Method: After 3 days, cell viability was measured using CellTiter-Glo Luminescent Cell Viability Assay (Promega) or light microscopy.

HMGN1 [2] = test: HMGN1 ELISA in culture medium of foreskin cells (Examples 10, 11; Tables 62, 63, 64); conditions: Homo sapiens, doxorubicin-treated foreskin cells, DMSO = 100; for activity at 30 µM: 30 μM test compound, read-out: HMGN1
HMGN1 [3] = test: HMGN1 ELISA in culture medium of A549 cancer cells (Example 12, Table 66); conditions: Homo sapiens, A549, doxorubicin-induced senescent A549 cells, ELISA, DMSO = 100, read-out: HMGN1 (amount of HMGN1 secreted in the cell culture); for activity at 90 µM: test compound 90 μM; for activity at 30 µM: test compound 30 μM
A549 = test: CellTiter-Glo cell viability of senescent A549 cancer cells (Example 12, Table 67); conditions: Homo sapiens, A549, doxorubicin-induced senescent A549 cancer cells, CellTiter-Glo, read-out: Survival (%); for viability at 1.1 µM: 1.1 μM test compound; for viability at 10 µM: 10 μM test compound; for viability at 30 µM: 30 μM test compound; for viability at 90 µM: 90 μM test compound

SMILES | viability at 1.1 µM [1] [%] | viability at 10 µM [1] [%] | viability at 30 µM [1] [%] | viability at […] [1] [%] | activity at 30 µM (HMGN1 [2]) [%] | activity at 90 µM (HMGN1 [3]) [%] | viability at 1.1 µM (A549) [%] | viability at 10 µM (A549) [%] | viability at 30 µM (A549) [%] | viability at 90 µM (A549) [%] | activity at 30 µM (HMGN1 [3]) [%] | viability at 90 µM ([1]; 90 μM test compound) [%] | activity at 90 µM (HMGN1 [2]; 90 μM test compound) [%]
CCN(CC)C(=S)SSC(=S)N(CC)CC [LX-1601, Disulfiram, reference compound] | 93.7 | 95.6 | 61.4 | 90 | 154 | 257 | 114 | 118 | 74.2 | 3.1 |  |  | 
C[C@H]1[C@H](SCc2ccccc2)O[C@@H]2O[C@@]3(C)CC[C@H]4[C@H](C)CC[C@@H]1[C@@]24OO3 [LX-505] | 35.2 |  |  | 0.4 | 299 |  | 51.1 |  |  |  | 317 |  | 
Clc1ccc(C(c2ccccc2Cl)C(Cl)Cl)cc1 (stereo not shown) [LX-1301, Mitotane, reference compound] | 104 | 83 | 0.4 | 106 | 281 |  | 106 | 101 | 17.5 |  | 318 |  | 
C=C(C)[C@@H]1CC[C@]2(C(=O)NCC)CC[C@]3(C)[C@H](CCC4[C@@]5(C)C=C(C#N)C(=O)C(C)(C)[C@@H]5CC[C@]43C)[C@@H]12 (stereo partly shown) [LX-2311] | 39.5 |  |  | 4.1 | 271 |  | 97.5 | 8.9 |  |  | 276 |  | 
C=C(CC)C(=O)c1ccc(OCC(=O)O)c(Cl)c1Cl [LX-2603, Ethacrynic acid, reference compound] | 100 | 95.8 | 52.6 | 103 |  | 245 | 98.7 | 89.1 | 41.5 | 1.8 |  | 37.8 | 218
COc1cc2nccc(Oc3ccc(NC(=O)NC4CC4)c(Cl)c3)c2cc1C(N)=O [LX-2803, Lenvatinib, reference compound] | 62 | 11.5 | 3.6 | 43.9 | 282 |  | 91.2 | 84.9 | 54.4 |  | 195 |  | 
CCc1ccc(C(=O)C(C)CN2CCCC2)cc1 (stereo not shown) [LX-1405, Inaperisone, reference compound] | 102 | 69.6 | 28.5 | 92.7 | 219 |  | 97.1 | 82.8 | 37.4 |  | 187 |  | 
C[C@H]1[C@H](C)CC[C@]2(C(=O)O)CC[C@]3(C)C(=CC[C@@H]4[C@@]5(C)C[C@@H](O)[C@H](O)C(C)(C)[C@@H]5CC[C@]43C)[C@H]12 [LX-2002, Corosolic acid] | 101 |  |  | 12.4 | 305 |  | 99.6 | 10.4 |  |  | 314 |  | 
COC(=O)c1ccc([C@@H]2c3ccc(OC)cc3C[C@H](C(=O)OC)N2C(=O)CCl)cc1 [LX-417] | 21.8 |  |  |  | 294 |  | 43.5 |  |  |  | 347 |  | 
CONC(=O)[C@]12CCC(C)(C)C[C@H]1[C@H]1C(=O)C=C3[C@@]4(C)C=C(C#N)C(=O)C(C)(C)[C@@H]4CC[C@@]3(C)[C@]1(C)CC2 [LX-2310] | 53.7 |  |  | 6.9 | 315 |  | 100 | 3.5 |  |  | 319 |  | 
CCCC[C@H]1Cc2c([nH]c3ccccc23)[C@H](c2ccc(C(=O)NC34CC5CC(CC(C5)C3)C4)cc2)N1C(=O)CCl [LX-420] | 0 |  |  |  | 286 |  | 10 |  |  |  | 307 |  | 
